Laboratory results: patent publication US20250339402A1, “EFFECTIVE MEANS TO MODULATE NMDA RECEPTOR-MEDIATED TOXICITY” (FUNDAMENTAL PHARMA GMBH, priority 2022, published 2025)
Entries after “also recorded” stand apart in the source; their conditions may differ. Where a name gives a salt, the structure may show the parent alone.

Experiments:
Type in all cases: cell-based
[1] = system: Primary mouse hippocampal neurons; experiment: Excitotoxic (glutamate/NMDA-induced) cell death in primary neuronal cultures, protection index; conditions: first subset; protection index from area above curve over 24 h glutamate/NMDA insult; compounds added 30 min before; 10 μM, Group A also at lower concentrations
Description: Primary mouse hippocampal neurons were prepared as previously described (Bading & Greenberg, Science, 1991; 253: 912-914; Zhang et al, Neuron, 2007, 53: 549-562) and maintained in Neurobasal-A medium supplemented with 2% B27, 5 mM L-Glutamax, and 0.5% Penicillin/Streptomycin until challenged with NMDA on days in vitro (DIV) 10. Glutamate-induced cell death was analyzed in a real-time manner by monitoring nuclear localized mCherry with IncuCyte® S3 Live-Cell Analysis System (Sartorius AG, Germany). Primary neurons plated in 24 well plates were infected with rAAV-hSyn-mCherry on DIV3 and challenged with 1 μM or 20 μM glutamate on DIV10. All compounds were added to the culture 30 min prior to glutamate/NMDA insult. Images were acquired following the glutamate application for 24 h with a 2 h interval, where 9-16 images were obtained via a 20×objective for each condition at each time point. Cell deaths were quantified by analyzing the existence of nuclear localized mCheery via the Basic Analyzer with Incucyte® 2021 software, size and average intensity were used as exclusion criteria.
In order to evaluate the protective effects of various compounds, a quantification method was developed to determine each compound's protection index. The protection index (from 0.0 to 10.0) was calculated by the area above the curve (AAC) during a 24 h excitotoxic stimuli, where the cell survival was normalized to the 0 h (FIG. 2), following the equation: […]
Where AAC represents for each compound, AACbasal represents for the basal condition without excitotoxic insult, AACVeh represents for the vehicle control with excitotoxic insult. Based on the equation, vehicle (DMSO) has a protection index at 0.0 and compound P401 of WO 2020/079244 has a protection index at 6.0 (at 10 μM).
The inventors also performed experiments with Group A compounds at lower concentration in a 3-fold dilution matter ([…]: 3.0, 1.0, 0.3, 0.1, 0.03) and were able to achieve a similar protection effect as 10 μM compound P401, but at a lower concentration.

[2] = system: human iPSC-derived prefrontal cortex organoids; experiment: Cell survival after glutamate/NMDA treatment in prefrontal cortex organoids (RealTime-Glo MT Cell Viability Assay); conditions: pre-incubation 30 min, 200 μM NMDA for 24 h; compared with P401; FIG. 4; hydrochloride
Description: Prefrontal cortex organoids were generated based on published literature (Bauersachs H G et al, Neuroscience, 2022; 484:83-97). Around week 20, organoids were pre-incubated with compound 120 for 30 min before challenged with 200 μM NMDA for 24 h, where 80% of neuron will undergo necrosis. The cell death was monitored and analyzed with a RealTime-Glo™ MT Cell Viability Assay (Promega, G9711) following the manufacture's instruction using a plate reader (luciferase). The cell survival (%) can be calculated by the following equation: […]
Where Ft is the luciferase intensity at each time point and Fbasal is the basal luciferase intensity before glutamate/NMDA insult to diminish the difference between different organoids. The Control and FControlBasal stands for the same in untreated organoids, therefore the cell death can be calculated by normalization to the healthy organoids.

NMDAR/TRPM4 complex = target: T1, NMDAR/TRPM4 complex (Homo sapiens, UniProt Q8TD43); experiment: Co-immunoprecipitation of TRPM4 and NMDA receptor subunits, Western blot; conditions: 10 μM for 30 min; lysates of human iPSC-derived brain organoids precipitated with anti-TRPM4; FIG. 5; hydrochloride
T1 construct: endogenous in cells; host or cells: human iPSC-derived brain organoids, week 25
T1 sequence (Q8TD43 whole entry, one chain of several): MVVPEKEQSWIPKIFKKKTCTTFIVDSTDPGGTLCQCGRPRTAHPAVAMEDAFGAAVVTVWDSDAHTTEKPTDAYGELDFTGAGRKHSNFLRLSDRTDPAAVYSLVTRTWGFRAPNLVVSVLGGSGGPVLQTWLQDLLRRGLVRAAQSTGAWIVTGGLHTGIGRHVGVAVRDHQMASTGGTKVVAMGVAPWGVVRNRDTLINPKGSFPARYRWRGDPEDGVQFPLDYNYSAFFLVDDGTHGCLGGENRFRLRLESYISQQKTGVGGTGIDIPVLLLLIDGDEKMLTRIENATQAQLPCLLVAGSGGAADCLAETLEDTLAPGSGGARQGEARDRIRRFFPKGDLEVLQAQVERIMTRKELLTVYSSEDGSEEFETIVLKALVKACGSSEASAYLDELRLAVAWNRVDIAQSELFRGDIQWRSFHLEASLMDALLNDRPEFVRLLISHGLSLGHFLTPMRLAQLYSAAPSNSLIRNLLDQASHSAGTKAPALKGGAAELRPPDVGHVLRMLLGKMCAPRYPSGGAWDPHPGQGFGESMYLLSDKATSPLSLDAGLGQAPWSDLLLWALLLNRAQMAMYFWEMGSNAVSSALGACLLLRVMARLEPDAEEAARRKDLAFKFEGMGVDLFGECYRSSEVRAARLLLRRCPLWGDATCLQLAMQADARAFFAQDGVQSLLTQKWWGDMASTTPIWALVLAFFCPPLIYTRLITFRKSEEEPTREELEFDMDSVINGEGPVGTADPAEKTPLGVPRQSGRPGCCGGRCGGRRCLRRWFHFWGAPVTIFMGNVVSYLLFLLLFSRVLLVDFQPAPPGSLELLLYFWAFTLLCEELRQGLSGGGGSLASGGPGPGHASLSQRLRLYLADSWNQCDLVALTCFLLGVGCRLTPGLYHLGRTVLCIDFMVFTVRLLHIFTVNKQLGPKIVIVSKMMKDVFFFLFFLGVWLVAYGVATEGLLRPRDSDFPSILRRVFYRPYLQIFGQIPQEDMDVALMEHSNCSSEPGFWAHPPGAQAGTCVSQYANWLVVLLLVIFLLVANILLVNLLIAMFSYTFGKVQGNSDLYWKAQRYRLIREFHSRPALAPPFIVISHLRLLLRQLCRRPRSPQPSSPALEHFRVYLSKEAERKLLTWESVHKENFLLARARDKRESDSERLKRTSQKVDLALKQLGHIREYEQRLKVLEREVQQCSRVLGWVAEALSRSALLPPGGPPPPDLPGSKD
Description: All procedures for co-immunoprecipitation were carried out at 4° C. Human iPSC derived brain organoids were cultured in Falcon@6 well TC-treated cell culture plate to week 25 as described (Bauersachs H G et al, Neuroscience, 2022; 484:83-97), which allows an abundant expression of both GluN2A/GluN2B/TRPM4 expression. 6 brain organoids were incubated with 10 μM compound 120 for 30 min, washed twice with ice-cold PBS and then lysed in 500 μL immunoprecipitation buffer (10 mM Tris, pH 8.0, 150 mM NaCl, 1 mM EDTA, 1% NP-40, 10% glycerol with EDTA-free Protease Inhibitor Cocktail (Roche). The lysate was incubated while rotating for 60 min, centrifuged for 12 min at 1,200×g to remove cell debris and nuclei. 10% of the supernatant was boiled with Laemmli buffer for input samples analysis. The rest of the supernatant was mixed with anti-TRPM4 antibody (1:200) overnight. The mixture was then incubated with Pierce™ Protein A Magnetic Beads for another 12 h to pull down antibody complex, and washed with immunoprecipitation buffer to remove any unspecific bindings. After the last washing, the supernatant was carefully removed, and the precipitate pellets were boiled in Laemmli buffer. Both input and precipitate samples were stored at −20° C. until analysed with western blots. […]

In the case of `NCCN(Cc1cccc(Cl)c1F)C1CC1` [Compound 120, N1-(3-chloro-2-fluorobenzyl)-N1-cyclopropylethane-1,2-diamine hydrochloride], the “Biological Activity Rating” value [1] is reported as “A+++ (With a protection index between 5.0 to 7.0, provides a comparable protection to compound P401 (10 μM) at 0.3 μM.)”, the “cell survival (%) after glutamate/NMDA treatment” value [2] is reported as “superior protection over compound P401; also recorded: improves cell survival after glutamate/NMDA treatment” and the “disruption of NMDAR/TRPM4 complex” value (NMDAR/TRPM4 complex) is reported as “the NMDAR/TRPM4 complex was disrupted; also recorded: disrupts the NMDAR/TRPM4 complex”.
